Data from patent US5935951A, “1-acyl-4-aliphatylaminopiperidine compounds” (Novartis Finance Corporation, priority 1994, dated 1999).
Counter-ions that a name gives are not always drawn.

Biological target: T1, 3H-substance P binding to the bovine retina (Bos taurus, UniProt F1MIX5)
T1 construct: from tissue; host or cells: bovine retina
Assay: radioreceptor assay: binding of 3H-substance P to the bovine retina (according to H. Bittiger)
Conditions: in vitro, read-out: in vitro values: inhibition of the binding of 3H-substance P to the bovine retina

T1 sequence (F1MIX5 1-407): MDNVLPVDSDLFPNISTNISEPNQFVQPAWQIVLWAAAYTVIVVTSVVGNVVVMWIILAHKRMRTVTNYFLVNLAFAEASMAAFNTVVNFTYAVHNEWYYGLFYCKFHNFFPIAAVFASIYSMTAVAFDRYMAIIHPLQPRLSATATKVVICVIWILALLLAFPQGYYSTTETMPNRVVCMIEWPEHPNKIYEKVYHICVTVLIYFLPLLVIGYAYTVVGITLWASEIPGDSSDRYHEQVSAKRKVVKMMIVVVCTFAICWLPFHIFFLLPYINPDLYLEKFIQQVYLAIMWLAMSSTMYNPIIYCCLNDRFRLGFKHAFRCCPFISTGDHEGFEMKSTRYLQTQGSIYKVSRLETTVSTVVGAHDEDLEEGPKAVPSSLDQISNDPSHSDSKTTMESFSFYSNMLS

| IC50 | SMILES |
| --- | --- |
| 11 nM | CN(C)CCCOC(=O)N[C@H]1CCN(C(=O)c2cc(C(F)(F)F)cc(C(F)(F)F)c2)[C@H](Cc2ccccc2)C1 [16 (2nd compound), 3-dimethylaminopropyl (2R,4S)-N-[2-benzyl-1-(3,5-bistrifluoromethylbenzoyl)piperidin-4-yl]carbamate] |
| 7.6 nM | CCNC(=O)N[C@H]1CCN(C(=O)c2cc(C(F)(F)F)cc(C(F)(F)F)c2)[C@H](Cc2ccc(Cl)cc2)C1 [45 (c), (2R,4S)-1-[1-(3,5-bistrifluoromethylbenzoyl)-2-(4-chlorobenzyl)piperdin-4-yl]-3-ethylurea] |
| 10 nM | NC(=O)CN[C@H]1CCN(C(=O)c2cc(C(F)(F)F)cc(C(F)(F)F)c2)[C@H](Cc2ccccc2)C1 [Example 2, (2R,4S)-2-[2-Benzyl-1-(3,5-bistrifluoromethylbenzoyl)piperidin-4-ylamino]-acetamide hydrochloride] |
| 11 nM | CCCC(=O)N[C@H]1CCN(C(=O)c2cc(C(F)(F)F)cc(C(F)(F)F)c2)[C@H](Cc2ccc(Cl)cc2)C1 [Example 28, (2R,4S)-N-[1-(3,5-Bistrifluoromethylbenzoyl)-2-(4-chlorobenzyl)piperidin-4-yl]-butyramide] |
| 9 nM | O=C(NC1CCCCC1)N[C@H]1CCN(C(=O)c2cc(C(F)(F)F)cc(C(F)(F)F)c2)[C@H](Cc2ccccc2)C1 [Example 45 (f), (2R,4S)-1-[2-benzyl-1-(3,5-bistrifluoromethylbenzoyl)piperidin-4-yl]-3-cyclohexylurea] |
